Here are results for 19 molecules from patent US11807620B2, “Quinazolinone compounds and related compounds” (PLEXIUM, INC., priority 2020, dated 2023).

What is called Dmax is the greatest extent of degradation seen.

The target of one test is T1, cereblon (NanoLuc-CRBN) (Homo sapiens, UniProt Q96SW2).
T1 construct: host or cells: HEK293T
Briefly: NanoBRET CRBN Cellular Target Engagement Assay. Type of test: binding. Conditions: compound tested at 10 μM, HEK293T cells transfected with NanoLuc-CRBN, 2 hr incubation; for remaining activity at 10 µM: lower = higher affinity, read-out: % tracer bound At the end of assay; for inhibition at 10 µM: read-out: % tracer removed From CBLN. An excerpt: The following example measures the extent to which a test compound of this invention binds to cereblon. In this example, a commercially available cereblon binding test kit (Promega Corporation, Madison, Wis., USA) was used but adapted to a 384 well format.
The kit comprises a tracer that binds to cereblon to form a tracer-cereblon complex. This complex is reversible. Upon addition of the test compound, competition between the tracer and the test compound for the binding site(s) on cereblon occurs. The extent of tracer release from cereblon correlates to the affinity of test compound to bind to cereblon. The higher the affinity, the more tracer is released from cereblon.
The assay is a homogenous cell-based assay that used bioluminescence resonance energy transfer (BRET) to measure cereblon target compound binding which causes loss of BRET. Lower BRET values correlate to higher loss of tracer bound to cereblon and, accordingly, higher the levels of target compound binding to cereblon.
The specifics of the assay include HEK293T cells were transfected with a NanoLuc-CRBN expression plasmid using Fugene as described. Approximately 24 hr later, transfected cells were washed with 1× Phosphate Buffered Saline (PBS) and harvested using trypsin. Cells were resuspended in Opti-MEM (available from Thermo Fisher Scientific) at a concentration of 2×10^5 cells/mL. A ratio of 1 part 100× Tracer to 4 parts NanoBRET Tracer Dilution Buffer was used to make a 20× Tracer stock. Next, 40 μl cells per well containing 1× tracer was dispensed into 384 well white tissue culture treated plates. Compounds were then dispensed using a D330e Digital Dispenser (Tecan Trading AG) and plates were allowed to incubate for 2 hr at 37° C., 5% CO2. Immediately prior to BRET measurements, a 3× Complete NanoBret Nano-Glo Substrate stock in Opti-MEM was prepared and 20 μl per well of substrate was subsequently added to the assay plates. Following a 2-3 minute incubation at room temperature, donor (450 nm) and acceptor (610 nm) emission values were read on a CLARIOStar multimode plate reader (BMG) in luminescence mode. Data were converted to milliBRET units by dividing acceptor emission values by donor emission and multiplying by 1000. […]
On the technique in general: BRET reads energy transfer from a luciferase to a nearby fluorophore.

Another test concerns the target T2, IKZF3 (Aiolos) (Homo sapiens, UniProt Q96SW2+Q9UKT9).
T2 construct: mScarlet (C, cleaved yes); expressed in transfected cells
As to the kind of experiment: Stable cell line fluorescent reporter degradation assay, IKZF3. Type of test: cell-based. The following applies: HEK 293T IKZF3-mNeonGreen reporter cells, 24 hour incubation, calculated visually from the curves. An excerpt:
(§1) Polycistronic plasmids were constructed for the mammalian expression of fluorescent reporter fusions of human transcription factors IKZF1 (Ikaros) and IKZF3 (Aiolos). The respective protein sequences had their C-terminal end joined to a GGGGS linker repeated three times followed by mNeonGreen, P2A sequence, and mScarlet. IKZF1 expression was driven by a CMV promoter while IKZF3 was EF1α promoter driven. The plasmids contained the HygR resistance gene for positive selection of cells with genomic integration of the reporter constructs. The plasmids were transfected using cationic lipid reagents into adherent HEK 293T cells and stable integrants were selected by treatment with 200 ug/mL hygromycin B. Clonal populations were obtained from the population of stable integrants either by limiting dilution or fluorescence activated cell sorting. The clonal stable cell lines were maintained under constant 200 ug/mL hygromycin B selection while being passaged for use in the degradation assays. The fluorescence intensity of the IKZF1/2/3-mNeonGreen (FITC channel) and mScarlet (PE channel) reporters were routinely analyzed by flow cytometry to confirm consistent expression levels between experiments.
(§2) Representative compounds were evaluated for their ability to degrade IKZF1 and IKZF3 in the following assay.
(§3) The IKZF1/IKZF3 degradation assays were carried out by harvesting the HEK 293T reporter cell lines and resuspending the cells in media formulated for reduced background fluorescence. The respective cell lines were seeded at a density of 4,000 cells/well into black-walled 384-well optical grade assay plates pre-coated by the manufacturer with PDL. The cells were incubated overnight to allow for attachment to the assay plate (37° C. with humidified air and 5% CO2 for all incubations). Dilutions of the compounds were prepared in dimethyl sulfoxide (DMSO) from 10 mM compound stock solutions in DMSO. The assay plates were treated with appropriate concentrations of the compounds by dispensing the DMSO dilutions in quadruplicate wells with an upper limit of 0.5% final DMSO.
(§4) After a 24 hour incubation with the compounds, the assay plates were imaged on an ImageXpress Pico microscopy system (cells maintained at 37° C. during imaging) to obtain the fluorescent readouts. The assay plates were imaged in the FITC and TRITC channels to obtain the mNeonGreen fluorescence intensity (reporter degradation data) and mScarlet fluorescence intensity (for cell segmentation), respectively. 293T-IKZF1 and 293T-IKZF3 reporter cell lines were imaged with exposures of 500 milliseconds (ms) for both FITC and TRITC channels. The resulting data was analyzed with Cell Reporter Xpress software using the 2-channel cell scoring analysis with a “percent positive” readout. The TRITC channel was selected for the “nuclei” segmentation with a threshold of 20 while the FITC channel was selected for the “Marker 1” segmentation and a threshold of 100 for the IKZF1 and IKZF3 reporter lines. The minimum segmentation width was set to 6 micrometers and the maximum segmentation width was set to 15 micrometers for all cell lines.
(§5) The percent degradation amounts were calculated visually from the curves generated at a concentration of 10 micromolar.

The next test has as its target T3, IKZF1 (Ikaros) (Homo sapiens, UniProt Q13422+Q96SW2).
T3 construct: mScarlet (C, cleaved yes); expressed in transfected cells
Briefly: Stable cell line fluorescent reporter degradation assay, IKZF1. The test is classed as cell-based. Conditions: HEK 293T IKZF1-mNeonGreen reporter cells, 24 hour incubation, calculated visually from the curves.
Text: as §1, §2, §3, §4, §5

T1 sequence (Q96SW2 whole entry): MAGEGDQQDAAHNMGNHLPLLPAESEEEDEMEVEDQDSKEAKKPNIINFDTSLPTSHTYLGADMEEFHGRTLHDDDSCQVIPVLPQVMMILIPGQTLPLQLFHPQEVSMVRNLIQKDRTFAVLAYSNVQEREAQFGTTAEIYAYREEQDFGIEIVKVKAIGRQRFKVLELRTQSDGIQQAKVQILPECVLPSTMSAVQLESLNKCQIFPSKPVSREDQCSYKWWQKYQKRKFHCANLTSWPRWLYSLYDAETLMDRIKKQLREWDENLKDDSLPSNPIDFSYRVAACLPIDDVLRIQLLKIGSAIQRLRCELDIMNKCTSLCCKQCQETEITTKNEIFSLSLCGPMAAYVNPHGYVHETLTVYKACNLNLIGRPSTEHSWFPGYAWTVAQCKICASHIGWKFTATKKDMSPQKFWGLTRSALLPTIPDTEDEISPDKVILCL
T2 sequence (Q9UKT9 whole entry): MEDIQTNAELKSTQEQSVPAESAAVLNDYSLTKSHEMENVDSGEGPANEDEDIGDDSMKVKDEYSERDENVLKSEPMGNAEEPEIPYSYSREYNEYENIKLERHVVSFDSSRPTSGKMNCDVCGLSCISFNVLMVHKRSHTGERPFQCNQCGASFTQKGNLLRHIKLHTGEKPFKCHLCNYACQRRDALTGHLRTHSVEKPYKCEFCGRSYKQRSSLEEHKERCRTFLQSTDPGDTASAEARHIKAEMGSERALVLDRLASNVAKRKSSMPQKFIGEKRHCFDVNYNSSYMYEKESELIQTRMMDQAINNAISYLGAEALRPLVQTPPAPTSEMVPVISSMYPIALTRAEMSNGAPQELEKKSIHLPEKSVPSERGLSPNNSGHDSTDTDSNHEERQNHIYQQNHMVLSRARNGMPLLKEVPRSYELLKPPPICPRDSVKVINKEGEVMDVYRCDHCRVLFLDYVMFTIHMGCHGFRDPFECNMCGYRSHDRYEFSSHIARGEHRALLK
T2 sequence (Q96SW2 whole entry): as the sequence (Q96SW2 whole entry) above
T2 sequence (Q16531 whole entry partner): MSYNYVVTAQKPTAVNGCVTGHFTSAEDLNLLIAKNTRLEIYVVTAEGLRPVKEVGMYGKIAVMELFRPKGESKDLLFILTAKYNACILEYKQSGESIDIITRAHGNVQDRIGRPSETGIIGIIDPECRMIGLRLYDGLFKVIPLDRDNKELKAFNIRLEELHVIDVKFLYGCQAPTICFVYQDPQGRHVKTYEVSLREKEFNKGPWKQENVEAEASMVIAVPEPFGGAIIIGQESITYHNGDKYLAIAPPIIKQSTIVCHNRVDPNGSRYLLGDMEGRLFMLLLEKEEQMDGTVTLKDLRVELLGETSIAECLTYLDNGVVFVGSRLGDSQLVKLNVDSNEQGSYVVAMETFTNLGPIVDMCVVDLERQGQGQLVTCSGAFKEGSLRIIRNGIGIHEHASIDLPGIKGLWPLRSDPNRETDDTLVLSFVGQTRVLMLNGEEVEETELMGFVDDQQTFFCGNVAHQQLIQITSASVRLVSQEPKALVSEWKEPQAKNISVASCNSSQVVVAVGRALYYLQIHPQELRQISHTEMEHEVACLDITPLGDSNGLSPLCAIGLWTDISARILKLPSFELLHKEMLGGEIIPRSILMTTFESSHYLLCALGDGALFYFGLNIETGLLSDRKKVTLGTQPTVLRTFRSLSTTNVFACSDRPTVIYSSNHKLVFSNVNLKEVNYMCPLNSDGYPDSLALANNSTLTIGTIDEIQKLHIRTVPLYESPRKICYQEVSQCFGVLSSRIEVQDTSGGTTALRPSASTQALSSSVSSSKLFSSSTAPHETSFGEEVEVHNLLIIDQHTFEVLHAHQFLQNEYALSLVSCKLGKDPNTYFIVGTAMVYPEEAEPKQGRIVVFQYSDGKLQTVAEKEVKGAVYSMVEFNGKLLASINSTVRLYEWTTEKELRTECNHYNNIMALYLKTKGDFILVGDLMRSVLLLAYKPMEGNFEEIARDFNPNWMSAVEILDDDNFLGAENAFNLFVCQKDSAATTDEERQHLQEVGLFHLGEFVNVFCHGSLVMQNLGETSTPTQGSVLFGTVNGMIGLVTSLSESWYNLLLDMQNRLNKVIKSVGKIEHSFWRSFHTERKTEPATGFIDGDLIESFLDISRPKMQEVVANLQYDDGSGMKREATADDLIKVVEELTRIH
T3 sequence (Q13422 whole entry): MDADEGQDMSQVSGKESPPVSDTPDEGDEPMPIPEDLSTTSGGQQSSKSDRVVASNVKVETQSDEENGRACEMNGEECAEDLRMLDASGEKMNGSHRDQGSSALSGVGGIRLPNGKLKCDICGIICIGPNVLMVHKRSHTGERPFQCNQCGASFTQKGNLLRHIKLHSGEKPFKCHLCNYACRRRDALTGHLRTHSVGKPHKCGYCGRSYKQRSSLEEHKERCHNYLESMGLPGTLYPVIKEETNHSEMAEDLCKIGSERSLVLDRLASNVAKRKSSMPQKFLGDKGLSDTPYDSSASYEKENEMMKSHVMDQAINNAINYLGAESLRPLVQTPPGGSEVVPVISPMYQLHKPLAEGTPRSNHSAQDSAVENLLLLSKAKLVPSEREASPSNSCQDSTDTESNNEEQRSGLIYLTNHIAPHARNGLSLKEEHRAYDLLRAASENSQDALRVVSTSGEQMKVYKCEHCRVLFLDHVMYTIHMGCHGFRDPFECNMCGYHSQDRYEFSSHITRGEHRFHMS
T3 sequence (Q96SW2 whole entry): as the sequence (Q96SW2 whole entry) above
T3 sequence (Q16531 whole entry partner): as the sequence (Q16531 whole entry partner) above

For the molecule `COc1ccccc1CNc1cccc2nc(C)n(C3CCC(=O)NC3=O)c(=O)c12` (centres unmarked) [Example 2, 3-(5-((2-methoxybenzyl)amino)-2-methyl-4-oxoquinazolin-3(4H)-yl)piperidine-2,6-dione], at cereblon (NanoLuc-CRBN), the remaining activity at 10 µM came to 47.4% and the inhibition at 10 µM is 52.6%.
For `COc1cccc(CNc2cccc3nc(C)n(C4CCC(=O)NC4=O)c(=O)c23)c1` (centres unmarked) [Example 3, 3-(5-((3-methoxybenzyl)amino)-2-methyl-4-oxoquinazolin-3(4H)-yl)piperidine-2,6-dione] the same measures were 27.3% and 72.7%.
In the same order, the values of `Cc1nc2cccc(NCc3ccccc3F)c2c(=O)n1C1CCC(=O)NC1=O` (centres unmarked) [Example 6, 3-(5-((2-fluorobenzyl)amino)-2-methyl-4-oxoquinazolin-3(4H)-yl)piperidine-2,6-dione] are 26.6% and 73.4%.
In the same order, the values of `Cc1ccc(CNc2cccc3nc(C)n(C4CCC(=O)NC4=O)c(=O)c23)cc1` (centres unmarked) [Example 8, 3-(2-methyl-5-((4-methylbenzyl)amino)-4-oxoquinazolin-3(4H)-yl)piperidine-2,6-dione] are 47.7% and 52.3%.
For the molecule `Cc1nc2cccc(NCc3ccccc3Cl)c2c(=O)n1C1CCC(=O)NC1=O` (centres unmarked) [Example 9, 3-(5-((2-chlorobenzyl)-amino)-2-methyl-4-oxoquinazolin-3(4H)-yl)piperidine-2,6-dione], on cereblon (NanoLuc-CRBN), the remaining activity at 10 µM is 30.2% and the inhibition at 10 µM amounted to 69.8%.
In the same order, the values of `Cc1nc2cccc(NCc3cccc(Cl)c3)c2c(=O)n1C1CCC(=O)NC1=O` (centres unmarked) [Example 10, 3-(5-((3-chlorobenzyl)-amino)-2-methyl-4-oxoquinazolin-3(4H)-yl)piperidine-2,6-dione] are 20.2% and 79.8%.
With `Cc1ccccc1CNc1cccc2nc(C)n(C3CCC(=O)NC3=O)c(=O)c12` (centres unmarked) [Example 11, 3-(5-((2-methylbenzyl)-amino)-2-methyl-4-oxoquinazolin-3(4H)-yl)piperidine-2,6-dione], at cereblon (NanoLuc-CRBN), the remaining activity at 10 µM came to 30.2% and the inhibition at 10 µM was 69.8%.
For `COc1ccc(CNc2cccc3nc(C)n(C4CCC(=O)NC4=O)c(=O)c23)cc1OC` (centres unmarked) [Example 12, 3-(5-((3,4-dimethoxy-benzyl)-amino)-2-methyl-4-oxoquinazolin-3(4H)-yl)piperidine-2,6-dione] the same measures were 0% and 100%.
In the same order, the values of `Cc1nc2cccc(NCc3ccccc3C#N)c2c(=O)n1C1CCC(=O)NC1=O` (centres unmarked) [Example 13, 3-(5-((2-cyanobenzyl)-amino)-2-methyl-4-oxoquinazolin-3(4H)-yl)piperidine-2,6-dione] are 16% and 84%.
In the case of `Cc1nc2cccc(NCc3ccc(C#N)cc3)c2c(=O)n1C1CCC(=O)NC1=O` (centres unmarked) [Example 14, 3-(5-((4-cyanobenzyl)-amino)-2-methyl-4-oxoquinazolin-3(4H)-yl)piperidine-2,6-dione], on cereblon (NanoLuc-CRBN), the remaining activity at 10 µM was 11.5% and the inhibition at 10 µM came out at 88.5%.
In the same order, the values of `Cc1nc2cccc(NCc3ccc(C(F)(F)F)cc3)c2c(=O)n1C1CCC(=O)NC1=O` (centres unmarked) [Example 15, 3-(5-((4-trifluoromethyl-benzyl)-amino)-2-methyl-4-oxoquinazolin-3(4H)-yl)piperidine-2,6-dione] are 23.9% and 76.1%.
In the same order, the values of `COc1cc(CNc2cccc3nc(C)n(C4CCC(=O)NC4=O)c(=O)c23)cc(OC)c1` (centres unmarked) [Example 16, 3-(5-((3,5-dimethoxy-benzyl)-amino)-2-methyl-4-oxoquinazolin-3(4H)-yl)piperidine-2,6-dione] are 20.9% and 79.1%.
In the same order, the values of `COc1ccc(CNc2cccc3nc(C)n(C4CCC(=O)NC4=O)c(=O)c23)c(OC)c1` (centres unmarked) [Example 17, 3-(5-((2,4-dimethoxy-benzyl)-amino)-2-methyl-4-oxoquinazolin-3(4H)-yl)piperidine-2,6-dione] are 34.8% and 65.2%.
Take `Cc1nc2cccc(NCc3c(Cl)cccc3Cl)c2c(=O)n1C1CCC(=O)NC1=O` (centres unmarked) [Example 18, 3-(5-((2,6-dichlorobenzyl)-amino)-2-methyl-4-oxoquinazolin-3(4H)-yl)piperidine-2,6-dione]: at cereblon (NanoLuc-CRBN), the remaining activity at 10 µM was 21.3% and the inhibition at 10 µM is 78.7%.
With `COc1ccc(OC)c(CNc2cccc3nnn(C4CCC(=O)NC4=O)c(=O)c23)c1` (centres unmarked) [Example 19, 3-(5-((2,5-dimethoxybenzyl)amino)-4-oxobenzo[d][1,2,3]triazin-3(4H)-yl)piperidine-2,6-dione], on cereblon (NanoLuc-CRBN), the remaining activity at 10 µM was 29.7% and the inhibition at 10 µM was found to be 71.3%.
In the same order, the values of `Cc1nc2cccc(NCc3cc(Cl)ccc3Cl)c2c(=O)n1C1CCC(=O)NC1=O` (centres unmarked) [Example 20, 3-(5-((2,5-dichlorobenzyl)amino)-2-methyl-4-oxoquinazolin-3(4H)-yl)piperidine-2,6-dione] are 12.1% and 87.9%.
For `Cc1nc2cccc(NCc3ccc(CO)cc3)c2c(=O)n1C1CCC(=O)NC1=O` (centres unmarked) [Example 21, 3-(5-((4-(hydroxymethyl)benzyl)amino)-2-methyl-4-oxoquinazolin-3(4H)-yl)piperidine-2,6-dione] the same measures were 9.9% and 90.1%.
Regarding `Cc1nc2cccc(NCc3ccc(CN4CC(N5CCOCC5)C4)cc3F)c2c(=O)n1C1CCC(=O)NC1=O` (centres unmarked) [Example 96, 3-(5-((2-fluoro-4-((3-morpholinoazetidin-1-yl)methyl)benzyl)amino)-2-methyl-4-oxoquinazolin-3(4H)-yl)piperidine-2,6-dione], at IKZF3 (Aiolos), the “% Degradation IKZF3 @ 10 micromolar” value is reported as 92.6%. On IKZF1 (Ikaros), the “% Degradation IKZF1 @ 10 micromolar” value was 92.6%.
In the case of `Cc1nc2cccc(NCc3ccc(CN4CCOCC4)cc3)c2c(=O)n1C1CCC(=O)NC1=O` (centres unmarked) [compound 32, 3-(2-methyl-5-((4-(morpholinomethyl)benzyl)amino)-4-oxoquinazolin-3(4H)-yl)piperidine-2,6-dione], the maximal degradation (Dmax) at 10 µM on IKZF3 (Aiolos) (10 micromolar) is 91.9%; on IKZF1 (Ikaros) (10 micromolar), 93.8%.
